In ChEMBL document CHEMBL1142627, “Ribofuranosyl triazolone: a natural product herbicide with activity on adenylosuccinate synthetase following phosphorylation” (J Nat Prod, 2000):
Active and inactive are the calls of the source. The rule behind the calls is not given here.

Tests used:
[1] = tested on: Amaranthus retroflexus; assay: Phytotoxicity against Amaranthus retroflexus assessed as visual injury at 2.0 kg/ha growth rate treated post-emergence by greenhouse test; type: functional
[2] = tested on: Amaranthus retroflexus; assay: Phytotoxicity against Amaranthus retroflexus assessed as visual injury at 4.0 kg/ha growth rate treated pre-emergence by greenhouse test; type: functional
[3] = tested on: Ipomoea hederacea; assay: Phytotoxicity against Ipomoea hederacea assessed as visual injury at 4.0 kg/ha growth rate treated pre-emergence by greenhouse test; type: functional
[4] = tested on: Alopecurus myosuroides; assay: Phytotoxicity against Alopecurus myosuroides assessed as visual injury at 0.5 kg/ha growth rate treated post-emergence by greenhouse test; type: functional
[5] = tested on: Arabidopsis thaliana; assay: Inhibition of Arabidopsis thaliana root growth; type: functional, organism-based
[6] = tested on: Abutilon theophrasti; assay: Phytotoxicity against Abutilon theophrasti assessed as visual injury at 0.5 kg/ha growth rate treated post-emergence by greenhouse test; type: functional
[7] = tested on: Setaria faberi; assay: Phytotoxicity against Setaria faberi assessed as visual injury at 4.0 kg/ha growth rate treated pre-emergence by greenhouse test; type: functional
[8] = tested on: Ipomoea hederacea; assay: Phytotoxicity against Ipomoea hederacea assessed as visual injury at 2.0 kg/ha growth rate treated pre-emergence by greenhouse test; type: functional
[9] = tested on: Amaranthus retroflexus; assay: Phytotoxicity against Amaranthus retroflexus assessed as visual injury at 4.0 kg/ha growth rate treated post-emergence by greenhouse test; type: functional
[10] = tested on: Alopecurus myosuroides; assay: Phytotoxicity against Alopecurus myosuroides assessed as visual injury at 4.0 kg/ha growth rate treated pre-emergence by greenhouse test; type: functional
[11] = tested on: Abutilon theophrasti; assay: Phytotoxicity against Abutilon theophrasti assessed as visual injury at 2.0 kg/ha growth rate treated post-emergence by greenhouse test; type: functional
[12] = tested on: Ipomoea hederacea; assay: Phytotoxicity against Ipomoea hederacea assessed as visual injury at 1.0 kg/ha growth rate treated post-emergence by greenhouse test; type: functional
[13] = tested on: Echinochloa crus-galli; assay: Phytotoxicity against Echinochloa crusgalli assessed as visual injury at 4.0 kg/ha growth rate treated pre-emergence by greenhouse test; type: functional
[14] = tested on: Setaria faberi; assay: Phytotoxicity against Setaria faberi assessed as visual injury at 0.5 kg/ha growth rate treated post-emergence by greenhouse test; type: functional
[15] = tested on: Ipomoea hederacea; assay: Phytotoxicity against Ipomoea hederacea assessed as visual injury at 2.0 kg/ha growth rate treated post-emergence by greenhouse test; type: functional
[16] = tested on: Helianthus annuus; assay: Phytotoxicity against Helianthus annuus assessed as visual injury at 1.0 kg/ha growth rate treated post-emergence by greenhouse test; type: functional
[17] = tested on: Avena fatua; assay: Phytotoxicity against Avena fatua assessed as visual injury at 1.0 kg/ha growth rate treated post-emergence by greenhouse test; type: functional
[18] = tested on: Alopecurus myosuroides; assay: Phytotoxicity against Alopecurus myosuroides assessed as visual injury at 0.5 kg/ha growth rate treated pre-emergence by greenhouse test; type: functional
[19] = tested on: Avena fatua; assay: Phytotoxicity against Avena fatua assessed as visual injury at 2.0 kg/ha growth rate treated pre-emergence by greenhouse test; type: functional
[20] = tested on: Ipomoea hederacea; assay: Phytotoxicity against Ipomoea hederacea assessed as visual injury at 0.5 kg/ha growth rate treated post-emergence by greenhouse test; type: functional
[21] = tested on: Arabidopsis thaliana; assay: Metabolite reversal in Arabidopsis thaliana assessed as root growth inhibition in presence of adenine; type: functional, organism-based
[22] = tested on: Alopecurus myosuroides; assay: Phytotoxicity against Alopecurus myosuroides assessed as visual injury at 1.0 kg/ha growth rate treated post-emergence by greenhouse test; type: functional
[23] = tested on: Setaria faberi; assay: Phytotoxicity against Setaria faberi assessed as visual injury at 1.0 kg/ha growth rate treated post-emergence by greenhouse test; type: functional
[24] = tested on: Echinochloa crus-galli; assay: Phytotoxicity against Echinochloa crusgalli assessed as visual injury at 2.0 kg/ha growth rate treated post-emergence by greenhouse test; type: functional
[25] = tested on: Setaria faberi; assay: Phytotoxicity against Setaria faberi assessed as visual injury at 0.5 kg/ha growth rate treated pre-emergence by greenhouse test; type: functional
[26] = tested on: Avena fatua; assay: Phytotoxicity against Avena fatua assessed as visual injury at 0.5 kg/ha growth rate treated post-emergence by greenhouse test; type: functional
[27] = tested on: Helianthus annuus; assay: Phytotoxicity against Helianthus annuus assessed as visual injury at 2.0 kg/ha growth rate treated post-emergence by greenhouse test; type: functional
[28] = species: Oryctolagus cuniculus; assay: (§1) Inhibition of rabbit muscle Adenylosuccinate synthase assessed as adenylosuccinate formation
[29] = tested on: Helianthus annuus; assay: Phytotoxicity against Helianthus annuus assessed as visual injury at 1.0 kg/ha growth rate treated pre-emergence by greenhouse test; type: functional
[30] = tested on: Setaria faberi; assay: Phytotoxicity against Setaria faberi assessed as visual injury at 1.0 kg/ha growth rate treated pre-emergence by greenhouse test; type: functional
[31] = tested on: Abutilon theophrasti; assay: Phytotoxicity against Abutilon theophrasti assessed as visual injury at 4.0 kg/ha growth rate treated post-emergence by greenhouse test; type: functional
[32] = tested on: Avena fatua; assay: Phytotoxicity against Avena fatua assessed as visual injury at 1.0 kg/ha growth rate treated pre-emergence by greenhouse test; type: functional
[33] = tested on: Abutilon theophrasti; assay: Phytotoxicity against Abutilon theophrasti assessed as visual injury at 0.5 kg/ha growth rate treated pre-emergence by greenhouse test; type: functional
[34] = tested on: Arabidopsis thaliana; assay: Metabolite reversal in Arabidopsis thaliana assessed as root growth inhibition in presence of guanine; type: functional, organism-based
[35] = tested on: Echinochloa crus-galli; assay: Phytotoxicity against Echinochloa crusgalli assessed as visual injury at 0.5 kg/ha growth rate treated post-emergence by greenhouse test; type: functional
[36] = tested on: Amaranthus retroflexus; assay: Phytotoxicity against Amaranthus retroflexus assessed as visual injury at 0.5 kg/ha growth rate treated pre-emergence by greenhouse test; type: functional
[37] = tested on: Avena fatua; assay: Phytotoxicity against Avena fatua assessed as visual injury at 2.0 kg/ha growth rate treated post-emergence by greenhouse test; type: functional
[38] = tested on: Alopecurus myosuroides; assay: Phytotoxicity against Alopecurus myosuroides assessed as visual injury at 2.0 kg/ha growth rate treated pre-emergence by greenhouse test; type: functional
[39] = tested on: Helianthus annuus; assay: Phytotoxicity against Helianthus annuus assessed as visual injury at 4.0 kg/ha growth rate treated pre-emergence by greenhouse test; type: functional
[40] = tested on: Helianthus annuus; assay: Phytotoxicity against Helianthus annuus assessed as visual injury at 4.0 kg/ha growth rate treated post-emergence by greenhouse test; type: functional
[41] = tested on: Abutilon theophrasti; assay: Phytotoxicity against Abutilon theophrasti assessed as visual injury at 1.0 kg/ha growth rate treated pre-emergence by greenhouse test; type: functional
[42] = tested on: Helianthus annuus; assay: Phytotoxicity against Helianthus annuus assessed as visual injury at 0.5 kg/ha growth rate treated post-emergence by greenhouse test; type: functional
[43] = tested on: Avena fatua; assay: Phytotoxicity against Avena fatua assessed as visual injury at 4.0 kg/ha growth rate treated pre-emergence by greenhouse test; type: functional
[44] = tested on: Alopecurus myosuroides; assay: Phytotoxicity against Alopecurus myosuroides assessed as visual injury at 1.0 kg/ha growth rate treated pre-emergence by greenhouse test; type: functional
[45] = tested on: Amaranthus retroflexus; assay: Phytotoxicity against Amaranthus retroflexus assessed as visual injury at 2.0 kg/ha growth rate treated pre-emergence by greenhouse test; type: functional
[46] = tested on: Avena fatua; assay: Phytotoxicity against Avena fatua assessed as visual injury at 4.0 kg/ha growth rate treated post-emergence by greenhouse test; type: functional
[47] = tested on: Arabidopsis thaliana; assay: Metabolite reversal in Arabidopsis thaliana assessed as root growth inhibition in presence of adenine and guanine; type: functional, organism-based
[48] = tested on: Echinochloa crus-galli; assay: Phytotoxicity against Echinochloa crusgalli assessed as visual injury at 4.0 kg/ha growth rate treated post-emergence by greenhouse test; type: functional
[49] = tested on: Helianthus annuus; assay: Phytotoxicity against Helianthus annuus assessed as visual injury at 0.5 kg/ha growth rate treated pre-emergence by greenhouse test; type: functional
[50] = tested on: Ipomoea hederacea; assay: Phytotoxicity against Ipomoea hederacea assessed as visual injury at 4.0 kg/ha growth rate treated post-emergence by greenhouse test; type: functional
[51] = tested on: Avena fatua; assay: Phytotoxicity against Avena fatua assessed as visual injury at 0.5 kg/ha growth rate treated pre-emergence by greenhouse test; type: functional
[52] = tested on: Abutilon theophrasti; assay: Phytotoxicity against Abutilon theophrasti assessed as visual injury at 2.0 kg/ha growth rate treated pre-emergence by greenhouse test; type: functional
[53] = tested on: Helianthus annuus; assay: Phytotoxicity against Helianthus annuus assessed as visual injury at 2.0 kg/ha growth rate treated pre-emergence by greenhouse test; type: functional
[54] = tested on: Echinochloa crus-galli; assay: Phytotoxicity against Echinochloa crusgalli assessed as visual injury at 2.0 kg/ha growth rate treated pre-emergence by greenhouse test; type: functional
[55] = tested on: Abutilon theophrasti; assay: Phytotoxicity against Abutilon theophrasti assessed as visual injury at 1.0 kg/ha growth rate treated post-emergence by greenhouse test; type: functional
[56] = tested on: Ipomoea hederacea; assay: Phytotoxicity against Ipomoea hederacea assessed as visual injury at 1.0 kg/ha growth rate treated pre-emergence by greenhouse test; type: functional
[57] = tested on: Setaria faberi; assay: Phytotoxicity against Setaria faberi assessed as visual injury at 2.0 kg/ha growth rate treated pre-emergence by greenhouse test; type: functional
[58] = tested on: Amaranthus retroflexus; assay: Phytotoxicity against Amaranthus retroflexus assessed as visual injury at 1.0 kg/ha growth rate treated pre-emergence by greenhouse test; type: functional
[59] = tested on: Ipomoea hederacea; assay: Phytotoxicity against Ipomoea hederacea assessed as visual injury at 0.5 kg/ha growth rate treated pre-emergence by greenhouse test; type: functional
[60] = tested on: Amaranthus retroflexus; assay: Phytotoxicity against Amaranthus retroflexus assessed as visual injury at 0.5 kg/ha growth rate treated post-emergence by greenhouse test; type: functional
[61] = tested on: Echinochloa crus-galli; assay: Phytotoxicity against Echinochloa crusgalli assessed as visual injury at 1.0 kg/ha growth rate treated post-emergence by greenhouse test; type: functional
[62] = tested on: Echinochloa crus-galli; assay: Phytotoxicity against Echinochloa crusgalli assessed as visual injury at 0.5 kg/ha growth rate treated pre-emergence by greenhouse test; type: functional
[63] = tested on: Amaranthus retroflexus; assay: Phytotoxicity against Amaranthus retroflexus assessed as visual injury at 1.0 kg/ha growth rate treated post-emergence by greenhouse test; type: functional
[64] = tested on: Echinochloa crus-galli; assay: Phytotoxicity against Echinochloa crusgalli assessed as visual injury at 1.0 kg/ha growth rate treated pre-emergence by greenhouse test; type: functional
[65] = tested on: Abutilon theophrasti; assay: Phytotoxicity against Abutilon theophrasti assessed as visual injury at 4.0 kg/ha growth rate treated pre-emergence by greenhouse test; type: functional
[66] = tested on: Setaria faberi; assay: Phytotoxicity against Setaria faberi assessed as visual injury at 2.0 kg/ha growth rate treated post-emergence by greenhouse test; type: functional
[67] = tested on: Alopecurus myosuroides; assay: Phytotoxicity against Alopecurus myosuroides assessed as visual injury at 4.0 kg/ha growth rate treated post-emergence by greenhouse test; type: functional
[68] = tested on: BMS; assay: (§2) Inhibition of Zea mays BMS cells Adenylosuccinate synthase assessed as adenylosuccinate formation; type: cell-based
[69] = tested on: Setaria faberi; assay: Phytotoxicity against Setaria faberi assessed as visual injury at 4.0 kg/ha growth rate treated post-emergence by greenhouse test; type: functional
[70] = tested on: Alopecurus myosuroides; assay: Phytotoxicity against Alopecurus myosuroides assessed as visual injury at 2.0 kg/ha growth rate treated post-emergence by greenhouse test; type: functional
[71] = as §1; design: species or system Oryctolagus cuniculus; settings: read-out: I50
[72] = as §2; type: cell-based; settings: read-out: I50
[73] = Arabidopsis thaliana, read-out: I50

O=c1[nH]ncn1[C@@H]1O[C@H](CO)[C@@H](O)[C@H]1O
Activity [1]: 50% | Activity [2]: 0% | Activity [3]: 40% | Activity [4]: 40% | I50 [5]: 0.04 ppm | IC50 [5, 73]: 0.2 µM | Activity [6]: 85% | Activity [7]: 0% | Activity [8]: 40% | Activity [9]: 70% | Activity [10]: 40% | Activity [11]: 80% | Activity [12]: 80% | Activity [13]: 0% | Activity [14]: 50% | Activity [15]: 80% | Activity [16]: 100% | Activity [17]: 60% | Activity [18]: 0% | Activity [19]: 0% | Activity [20]: 75% | I50 [21]: 1.8 ppm | IC50 [21, 73]: 8.3 µM | Activity [22]: 70% | Activity [23]: 70% | Activity [24]: 85% | Activity [25]: 0% | Activity [26]: 50% | Activity [27]: 95% | Activity [28]: inactive | Activity [29]: 10% | Activity [30]: 0% | Activity [31]: 80% | Activity [32]: 0% | Activity [33]: 15% | Activity [34]: inactive | Activity [35]: 70% | Activity [36]: 0% | Activity [37]: 70% | Activity [38]: 35% | Activity [39]: 60% | Activity [40]: 95% | Activity [41]: 30% | Activity [42]: 90% | Activity [43]: 0% | Activity [44]: 30% | Activity [45]: 0% | Activity [46]: 60% | I50 [47]: 2.5 ppm | IC50 [47, 73]: 11.5 µM | Activity [48]: 90% | Activity [49]: 0% | Activity [50]: 90% | Activity [51]: 0% | Activity [52]: 30% | Activity [53]: 20% | Activity [54]: 0% | Activity [55]: 70% | Activity [56]: 25% | Activity [57]: 0% | Activity [58]: 0% | Activity [59]: 15% | Activity [60]: 0% | Activity [61]: 85% | Activity [62]: 0% | Activity [63]: 50% | Activity [64]: 0% | Activity [65]: 65% | Activity [66]: 60% | Activity [67]: 80% | Activity [68]: inactive | Activity [69]: 85% | Activity [70]: 70%

O=c1[nH]ncn1[C@@H]1O[C@H](COP(=O)(O)O)[C@@H](O)[C@H]1O [PHOSPHORIBOFURANOSYL TRIAZOLONE]
Activity ([28]; TDE = time-dependent effect): tde | IC50 [71]: 0.18 µM | IC50 [72]: 0.98 µM

O=C1NC(=O)[C@@]2(N1)O[C@H](COP(=O)(O)O)[C@@H](O)[C@H]2O
Activity ([28]; TDE = time-dependent effect): tde | Activity ([68]; TDE = time-dependent effect): tde
